Results: PMC8049054, “Systematic Assessment of Fragment Identification for Multitarget Drug Design” (Chemmedchem, 2021)

Target: T1, 5‐lipoxygenase (5‐LOX) (Homo sapiens, UniProt P09917)
T1 construct: made in house; host or cells: E. coli BL21 (DE3)
T1 sequence (P09917 1-674): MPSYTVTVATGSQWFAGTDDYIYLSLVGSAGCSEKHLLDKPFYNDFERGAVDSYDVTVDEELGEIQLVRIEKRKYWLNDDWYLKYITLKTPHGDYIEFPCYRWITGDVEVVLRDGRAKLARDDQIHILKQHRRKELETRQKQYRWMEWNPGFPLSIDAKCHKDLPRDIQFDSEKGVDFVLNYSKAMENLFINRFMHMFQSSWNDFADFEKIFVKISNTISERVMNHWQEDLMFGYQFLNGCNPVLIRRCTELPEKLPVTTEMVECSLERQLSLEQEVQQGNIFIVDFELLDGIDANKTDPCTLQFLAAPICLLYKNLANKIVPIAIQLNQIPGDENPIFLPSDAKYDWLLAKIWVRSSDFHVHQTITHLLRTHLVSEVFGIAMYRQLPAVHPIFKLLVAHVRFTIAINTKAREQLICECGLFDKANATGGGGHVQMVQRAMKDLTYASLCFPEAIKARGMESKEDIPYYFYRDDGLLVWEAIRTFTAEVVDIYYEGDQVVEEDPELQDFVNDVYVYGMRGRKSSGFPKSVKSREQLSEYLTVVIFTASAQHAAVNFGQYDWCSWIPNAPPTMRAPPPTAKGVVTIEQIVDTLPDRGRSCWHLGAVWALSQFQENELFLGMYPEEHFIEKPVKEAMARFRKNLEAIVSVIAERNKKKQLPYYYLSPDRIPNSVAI
Assay: 5-LOX activity assay (HPLC detection of product formation)
Assay type: biochemical
Details: for 5‐LOX LE: ligand efficiency calculated from IC50; for IC50: mean±standard deviation of three independent experiments
Protocol: For hit validation, we employed secondary assays with orthogonal readouts to confirm fragment activities. Biochemical activity assays were chosen for the enzymes sEH, LTA4H, and 5‐LOX. […] RXRα and FXR modulation was assessed in cell‐based hybrid reporter gene assays. All ten compounds were tested at a single concentration of 500 μM in the sEH and LTA4H activity assays and with a concentration of 100 μM on 5‐LOX, RXRα, and FXR. Fragments showing an inhibition greater than 50 % (sEH‐H and LTA4H) or greater than 70 % (5‐LOX) as well as the hits determined in the DSF experiments were further characterized in full concentration‐response curves between 0.1 and 1000 μM. […] As alternative cell‐free assay we employed isothermal titration calorimetry (ITC) to determine binding affinity of the fragments towards the LBDs of both nuclear receptors. ITC was performed with a protein concentration of 50 μM and compound concentrations of 250 μM.
The 10 fragments showing dual activity in the DSF experiments were validated by functional assay screening with a fixed concentration of 500 µM in case of sEH-H and LTA4H, 100 µM in case of 5-LOX and 30 µM, 10 µM and 5 µM in case of FXR and […]
% (5-LOX) as well as the hits determined in the DSF experiments were further measured with concentrations between 1000 µM and 0.1 µM (sEH-H and LTA4H) and between 300 µM and 1 µM (5-LOX). The sEH and LTA4H activity assays were performed as triplicate and repeated 3 times. The 5-LOX activity assay was performed with one point per concentration and repeated 3 times Raw data was first analyzed in Microsoft Office Excel (2013), before IC50 curves were plotted and further analyzed using GraphPad Prism 7 and GraphPad Prism 8 for the shown graphs .
The eight approved drugs were measured in the orthogonal assay systems analogous to the fragments. […]
For the 5-LOX they […]
were measured as single point measurement in three different experiments with concentrations between 300 µM and 1 µM. For […]
Raw data was processed according to the fragments. […]

Row | SMILES | 5‐LOX LE [kcal/mol] | IC50 [µM]
1 | Oc1ccc2cc[nH]c2c1 [Compound 5] | 0.64 | 19.9 ± 2.4
2 | Cc1cc(=O)n(-c2ccc(C)c(C)c2)[nH]1 [Compound 2] | 0.42 | 21.2 ± 7.3
3 | Oc1ccc(-c2ccc(F)cc2F)cc1 [Compound 9] | 0.38 | 64.6 ± 26.4
4 | Clc1ccc2c(c1)Nc1ccccc1CC2 [Compound 8] | 0.44 | 6.5 ± 2.2
5 | Fc1ccc(-c2c[nH]c3ccccc23)cc1 [Compound 10] | 0.36 | 54.3 ± 19.7
6 | CCN(Cc1ccccc1)c1ccccc1 [Compound 7] |  | 118 ± 45.1
